Measurements as given in PMC2933030 (Biochemical Journal, 2010).

Key:
[1] = test system: 4xUb-Luc reporter in MDA-MB-231 cells; test: 4xUb-Luc reporter accumulation assay; assay type: cell-based; settings: for MDA231 4xUb-Luc Maximal induction: 8 h with compound, over DMSO control
[2] = test system: bulk protein turnover in HCT116 cells; test: Bulk protein turnover assay; assay type: cell-based
[3] = test system: β5 site of the proteasome; settings: cited from earlier work
[4] = target: human erythrocyte 20S β1c (caspase-like) site, constitutive proteasome (Homo sapiens, UniProt P28072+Q99436); test: Purified human 20S-PA28 peptidase assay, β1c site; assay type: biochemical
[5] = target: human peripheral blood monocyte 20S β1i site, immunoproteasome (Homo sapiens, UniProt P28065+P40306); test: Purified human 20S-PA28 peptidase assay, β1i site; assay type: biochemical
[6] = target: human erythrocyte 20S β2c (trypsin-like) site, constitutive proteasome (Homo sapiens, UniProt P49720+Q99436); test: Purified human 20S-PA28 peptidase assay, β2c site; assay type: biochemical
[7] = target: human peripheral blood monocyte 20S β2i site, immunoproteasome (Homo sapiens, UniProt P40306+P49720); test: Purified human 20S-PA28 peptidase assay, β2i site; assay type: biochemical
[8] = target: human peripheral blood monocyte 20S β5i site, immunoproteasome (Homo sapiens, UniProt P20618+P28062); test: Purified human 20S-PA28 peptidase assay, β5i site; assay type: biochemical
[9] = target: human erythrocyte 20S β5 site (Homo sapiens, UniProt P20618+P28074); test: Kinetic analysis of purified 20S inhibition; assay type: biochemical
MDA-MB-231 cells = test: ATPlite cell viability assay, MDA-MB-231; assay type: cell-based; settings: Homo sapiens, MDA-MB-231, 72 h, read-out: Cell viability MDA-MB-231 LC50
[10] = test system: MDA-MB-231, Calu6, H460, HCT116 and HT29 cells; test: ATPlite cell viability assays across cancer cell lines; assay type: cell-based; settings: 72 h, read-out: LC50 values across a panel of five cancer cell lines
Cathepsin L = Cathepsin L (Homo sapiens, UniProt P07711); test: Protease selectivity assay, cathepsin L; assay type: biochemical
Chain of Cathepsin L (P07711 114-333): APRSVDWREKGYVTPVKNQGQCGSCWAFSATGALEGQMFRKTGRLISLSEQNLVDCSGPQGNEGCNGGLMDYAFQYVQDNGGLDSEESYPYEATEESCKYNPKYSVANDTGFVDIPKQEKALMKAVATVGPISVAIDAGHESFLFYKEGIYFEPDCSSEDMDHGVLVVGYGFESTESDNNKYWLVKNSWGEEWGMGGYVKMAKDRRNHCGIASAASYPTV

[11] = target: Coagulation Factor β-XIIa (Homo sapiens, UniProt P00748); test: Protease selectivity assay, coagulation Factor β-XIIa; assay type: biochemical
Chain of Coagulation Factor β-XIIa (P00748 373-615 limits assumed, other chains not shown): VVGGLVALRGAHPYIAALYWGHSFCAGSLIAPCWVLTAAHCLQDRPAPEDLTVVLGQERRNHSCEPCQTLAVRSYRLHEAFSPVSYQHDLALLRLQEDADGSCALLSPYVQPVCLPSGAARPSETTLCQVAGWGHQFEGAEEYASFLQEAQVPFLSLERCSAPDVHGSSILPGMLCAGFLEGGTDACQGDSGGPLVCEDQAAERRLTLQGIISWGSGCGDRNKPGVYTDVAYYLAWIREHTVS

Thrombin = Thrombin (Homo sapiens, UniProt P00734); test: Protease selectivity assay, thrombin; assay type: biochemical
[12] = target: Tissue plasminogen activator (Homo sapiens, UniProt P00750); test: Protease selectivity assay, tissue plasminogen activator; assay type: biochemical
Chain of Tissue plasminogen activator (P00750 36-562): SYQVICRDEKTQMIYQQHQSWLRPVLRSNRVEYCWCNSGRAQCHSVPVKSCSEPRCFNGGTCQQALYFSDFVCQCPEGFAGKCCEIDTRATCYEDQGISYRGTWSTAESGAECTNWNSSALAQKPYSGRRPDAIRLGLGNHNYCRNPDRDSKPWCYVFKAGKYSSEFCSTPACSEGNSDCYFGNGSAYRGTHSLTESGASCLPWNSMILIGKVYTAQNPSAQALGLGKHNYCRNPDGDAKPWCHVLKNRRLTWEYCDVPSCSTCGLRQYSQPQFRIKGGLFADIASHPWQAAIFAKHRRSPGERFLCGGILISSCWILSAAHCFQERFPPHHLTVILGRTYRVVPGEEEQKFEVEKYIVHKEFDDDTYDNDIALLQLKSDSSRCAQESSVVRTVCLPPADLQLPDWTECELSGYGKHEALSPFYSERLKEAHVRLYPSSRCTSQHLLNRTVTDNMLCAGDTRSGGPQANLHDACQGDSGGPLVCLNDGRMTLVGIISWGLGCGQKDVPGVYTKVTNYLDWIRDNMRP

Trypsin = test: Protease selectivity assay, trypsin; assay type: biochemical, human

Compound | MDA231 4xUb-Luc Maximal induction [1] [fold] | inhibition at 3 µM ([2]; Homo sapiens, HCT-116, read-out: inhibition of bulk protein turnover) [%] | t½ for dissociation from the β5 site [3] | IC50 [4] [µM] | IC50 [5] [µM] | IC50 [6] [µM] | IC50 [7] [µM] | IC50 [8] [µM] | Ki [9] [µM] | accumulation of the 4xUb-Luc reporter, up to ([1]; 8 h, highest effect observed) | CC50 (MDA-MB-231 cells) [µM] | CC50 [10] [µM] | Enzyme inhibition at 100 μM compound, Cathepsin L (Cathepsin L) [%] | Enzyme inhibition at 100 μM compound, Coagulation Factor β-XIIa [11] [%] | Enzyme inhibition at 100 μM compound, Thrombin (Thrombin) [%] | Enzyme inhibition at 100 μM compound, Tissue plasminogen activator [12] [%] | Enzyme inhibition at 100 μM compound, Trypsin (Trypsin) [%] | inhibition of bulk protein turnover ([2]; HCT116 cells, 3 μM compound)
CC(C)C[C@H](NC(=O)[C@H](Cc1ccccc1)NC(=O)c1cnccn1)B(O)O [Bortezomib] | 340±12 | ~50 | ~ 110 min | – | – | – | – | – | – | – | – | – | – | – | – | – | – | –
Cc1ccc(CNC(=O)[C@H](CCc2ccccc2)NC(=O)[C@H](CCc2ccccc2)NC(=O)[C@H](CCc2ccccc2)NC(=O)c2cnc(C)cn2)cc1 [Compound 1, 5-methyl-N-((S)-1-((S)-1-((S)-1-(4-methylbenzylamino)-1-oxo-4-phenylbutan-2-ylamino)-1-oxo-4-phenylbutan-2-ylamino)-1-oxo-4-phenylbutan-2-yl)pyrazine-2-carboxamide] | 52±16 | – | – | 28 | > 100 | 57 | > 100 | 0.0089 | 0.0005 ± 0.00012 | approx. 100 fold | 0.15 ± 0.023 | 0.05 to 0.38 | < 50 | < 50 | < 50 | < 50 | < 50 | –
C[C@@]12OC(=O)[C@]1([C@@H](O)[C@@H]1C=CCCC1)NC(=O)[C@@H]2CCCl [ML858] | – | – | – | – | – | – | – | – | – | – | – | – | – | – | – | – | – | comparable
